Assay results: PMC9322406, “Broad‐range metalloprotease profiling in plants uncovers immunity provided by defence‐related metalloenzyme” (The New Phytologist, 2022)

What was measured:
Assay in all cases: competition with DK-01 photoaffinity labelling, in-gel fluorescence
Type in all cases: biochemical
Settings in all cases: 200 uM inhibitor preincubated, 10 uM DK-01; leaf extract; band assigned by knockout
[1] = molecular target: T1, PREP1 (Arabidopsis thaliana, UniProt Q9LJL3)
T1 construct: assigned by knockout lines; locus printed At3g18170, probably a misprint for At3g19170
T1 sequence (Q9LJL3 86-1080): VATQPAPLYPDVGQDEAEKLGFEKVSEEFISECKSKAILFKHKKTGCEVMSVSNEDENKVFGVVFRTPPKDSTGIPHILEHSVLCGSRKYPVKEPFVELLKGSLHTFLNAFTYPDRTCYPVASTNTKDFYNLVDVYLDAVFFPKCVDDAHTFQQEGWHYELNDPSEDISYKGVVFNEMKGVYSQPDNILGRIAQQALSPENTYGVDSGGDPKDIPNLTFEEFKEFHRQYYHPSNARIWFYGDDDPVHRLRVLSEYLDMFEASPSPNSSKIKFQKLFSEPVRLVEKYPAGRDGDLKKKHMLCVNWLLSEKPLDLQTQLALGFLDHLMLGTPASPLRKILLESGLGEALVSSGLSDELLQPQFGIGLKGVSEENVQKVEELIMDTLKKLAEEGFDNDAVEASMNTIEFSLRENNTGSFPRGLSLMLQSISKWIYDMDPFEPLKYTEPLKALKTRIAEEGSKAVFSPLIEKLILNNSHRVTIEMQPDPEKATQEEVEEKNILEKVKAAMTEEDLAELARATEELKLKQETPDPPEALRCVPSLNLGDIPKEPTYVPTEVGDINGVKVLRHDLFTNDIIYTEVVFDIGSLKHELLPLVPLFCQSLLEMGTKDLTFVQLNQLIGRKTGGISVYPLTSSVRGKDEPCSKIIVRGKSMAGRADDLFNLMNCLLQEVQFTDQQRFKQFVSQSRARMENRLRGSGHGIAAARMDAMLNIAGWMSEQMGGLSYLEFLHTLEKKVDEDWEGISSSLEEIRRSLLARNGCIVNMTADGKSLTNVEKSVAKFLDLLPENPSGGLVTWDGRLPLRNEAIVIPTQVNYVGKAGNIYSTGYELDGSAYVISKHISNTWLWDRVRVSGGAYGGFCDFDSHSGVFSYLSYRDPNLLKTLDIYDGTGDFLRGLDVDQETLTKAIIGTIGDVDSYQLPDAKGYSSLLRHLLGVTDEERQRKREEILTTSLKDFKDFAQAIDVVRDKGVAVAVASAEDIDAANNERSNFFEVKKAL

[2] = molecular target: T2, TOP1 (Arabidopsis thaliana, UniProt Q94AM1)
T2 construct: gene OOP; assigned by knockout lines
T2 sequence (Q94AM1 83-791): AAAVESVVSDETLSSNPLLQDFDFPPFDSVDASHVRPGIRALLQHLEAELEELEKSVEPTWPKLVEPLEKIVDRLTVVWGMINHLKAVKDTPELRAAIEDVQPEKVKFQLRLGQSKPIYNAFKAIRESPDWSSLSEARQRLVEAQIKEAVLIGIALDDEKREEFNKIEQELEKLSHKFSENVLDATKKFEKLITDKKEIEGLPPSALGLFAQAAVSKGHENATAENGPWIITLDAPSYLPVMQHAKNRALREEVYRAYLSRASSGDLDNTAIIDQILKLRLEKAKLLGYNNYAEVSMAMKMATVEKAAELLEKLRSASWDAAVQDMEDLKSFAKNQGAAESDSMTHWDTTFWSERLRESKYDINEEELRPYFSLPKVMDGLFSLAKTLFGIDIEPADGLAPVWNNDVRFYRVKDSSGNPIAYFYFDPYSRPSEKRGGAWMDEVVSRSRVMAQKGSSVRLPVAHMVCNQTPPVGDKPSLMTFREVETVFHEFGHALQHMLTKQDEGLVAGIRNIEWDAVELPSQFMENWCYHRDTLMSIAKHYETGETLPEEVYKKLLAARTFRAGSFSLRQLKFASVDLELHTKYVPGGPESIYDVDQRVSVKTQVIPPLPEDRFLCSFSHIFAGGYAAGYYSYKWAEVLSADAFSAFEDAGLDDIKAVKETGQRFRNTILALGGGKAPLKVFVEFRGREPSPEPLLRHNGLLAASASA

[3] = molecular target: T3, APM1 (Arabidopsis thaliana, UniProt Q8VZH2)
T3 construct: assigned by mutant lines
T3 sequence (Q8VZH2 1-879): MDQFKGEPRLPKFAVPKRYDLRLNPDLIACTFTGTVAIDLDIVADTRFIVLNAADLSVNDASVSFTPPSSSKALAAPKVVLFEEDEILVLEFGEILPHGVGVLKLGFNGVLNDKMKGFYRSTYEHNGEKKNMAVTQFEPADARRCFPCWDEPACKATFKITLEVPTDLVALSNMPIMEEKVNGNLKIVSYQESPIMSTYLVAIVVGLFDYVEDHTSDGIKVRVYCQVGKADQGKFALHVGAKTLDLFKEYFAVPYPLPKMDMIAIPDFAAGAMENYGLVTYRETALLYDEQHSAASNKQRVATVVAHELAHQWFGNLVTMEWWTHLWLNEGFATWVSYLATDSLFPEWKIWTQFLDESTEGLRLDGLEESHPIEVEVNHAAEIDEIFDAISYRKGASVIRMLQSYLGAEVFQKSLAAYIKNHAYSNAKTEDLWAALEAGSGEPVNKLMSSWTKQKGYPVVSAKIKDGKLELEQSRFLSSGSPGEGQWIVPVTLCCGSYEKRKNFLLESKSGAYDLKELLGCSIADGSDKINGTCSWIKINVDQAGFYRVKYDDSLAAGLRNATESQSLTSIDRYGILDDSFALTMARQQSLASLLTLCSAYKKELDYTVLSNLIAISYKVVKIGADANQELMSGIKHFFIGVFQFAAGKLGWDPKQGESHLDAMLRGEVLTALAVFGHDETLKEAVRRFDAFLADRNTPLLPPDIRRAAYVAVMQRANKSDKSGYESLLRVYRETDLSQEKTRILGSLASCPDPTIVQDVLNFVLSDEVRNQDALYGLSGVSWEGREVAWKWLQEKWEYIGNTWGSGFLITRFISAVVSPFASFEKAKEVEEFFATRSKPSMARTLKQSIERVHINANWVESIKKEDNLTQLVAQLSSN

Structure (SMILES) | competition with DK-01 photoaffinity labelling, in-gel fluorescence [1] | competition with DK-01 photoaffinity labelling, in-gel fluorescence [2] | competition with DK-01 photoaffinity labelling, in-gel fluorescence [3]
CCCCC[C@H](CC(=O)NO)C(=O)N[C@H](C(=O)N1CCC[C@H]1CO)C(C)C [actinonin] | PREP1 is actinonin/ilomastat‐sensitive | TOP1 labelling is actinonin‐sensitive and requires a neutral pH | APM1 is marimastat/actinonin‐sensitive and active at pH5 and above
CNC(=O)[C@H](Cc1c[nH]c2ccccc12)NC(=O)[C@@H](CC(=O)NO)CC(C)C [ilomastat] | PREP1 is actinonin/ilomastat‐sensitive |  | 
CNC(=O)[C@@H](NC(=O)[C@H](CC(C)C)[C@H](O)C(=O)NO)C(C)(C)C [marimastat] |  |  | APM1 is marimastat/actinonin‐sensitive and active at pH5 and above
